In US20030113819A1, “Carrier peptide and method for delivery of molecules into cells” (priority 2002, published 2003):
Entries after “also recorded” stand apart in the source; their conditions may differ. No end group written: not given here. Cy5Q = quencher

Columns and labels:
parental SK-OV cells = assay: Nitroreductase assay, delivery of nitroreductase reporter, non-transfected cells; assay type: cell-based, Human; conditions: 10 μM, parental cell lines, FIG. 9
Excerpt: (§1) As disclosed in PCT/GB99/01746, the fluorescence properties of cyanine dyes may be modified by substitution of the dye with nitro, and/or dinitrobenzyl groups, which have the effect of reducing or abolishing the fluorescence from the molecule. An example of such a quenching or “dark” dye is Cy5Q (Amersham Pharmacia Biotech). In the presence of the enzyme, nitroreductase (NTR), a nitro-group substituent of Cy5Q may be converted to an amino-group, with the result that there is an increase in the fluorescence intensity of the dye. This may be used as the basis for an assay for the measurement of intracellular nitroreductase. In this example, Cy5Q is conjugated to a carrier peptide and is used as an indicator of nitroreductase (NTR) in whole, living cells.
(§2) The assay may be carried out using cells transfected with DNA encoding the gene for bacterial NTR, such that when the Cy5Q conjugate is introduced into such a transfected cell line, an increase in fluorescence is measured. […]
(§3) Cy5Q chemically linked to the carrier peptide Ac-Ala-Pro-Thr-Arg-Val-Leu-Pro-Pro-Leu-Val-Ala-Gly-Gly-Lys-amide was incubated with cells (30,000 cells/well) (1-5 hours, 5% CO2, 37° C., 95% humidity), cells washed (×3) with PBS and fluorescence measured from below, using a CytoFluor multi-well plate reader (Applied Biosystems), (activating at 610 nm, emission 670 nm). […]

[1] = tested on: SK-OV-NTR cells (SK-OV-3 stably transfected with bacterial NTR genes); assay: Nitroreductase assay, delivery of nitroreductase reporter, transfected cells; assay type: cell-based, Human; conditions: 10 μM, 5 hour incubation
Excerpt: as §1, §2, §3

NIH 3T3 = assay: Selective permeabilisation with digitonin (cytosolic vs organelle fraction fluorescence); assay type: cell-based, Mouse; conditions: 60 min incubation, 20 μM digitonin 3 min, FIG. 8
Protocol: Mouse fibroblasts (NIH 3T3) were cultured at 1×10^6 cells/ml in DMEM (see above) on 24-well tissue culture plates (Costar Inc.). Cells were incubated with Cy3- labelled carrier peptides (H2N-Ala-Pro-Thr-Arg-Val-Pro-Leu-Pro-Leu-Pro-Val-Gly-Gly-Lys-OH (SEQ ID No.4); H2N-Ala-Pro-Thr-Arg-Ala-Val-Leu-Pro-Leu-Ala-Val-Gly-Gly-Lys-OH (SEQ ID No.5); H2N-Ala-Pro-Thr-Arg-Val-Leu-Pro-Pro-Leu-Val-Ala-Gly-Gly-Lys-OH (SEQ ID No.6); H2N-Ala-Pro-Thr-Arg-Val-Leu-Leu-Pro-Leu-Leu-Val-Gly-Gly-Lys-OH (SEQ ID No.7) for 60 minutes (5% CO2, 37° C., 95% humidity). Cells were washed (×4) with PBS, before addition of 20 μM digitonin for 3 minutes. Cells were rapidly centrifuged (10,000×g, for 5 minutes) to separate into supernatant (cytosolic) and pellet (organelle) fractions. The fluorescence activity was then measured using a CytoFluor multi-well plate reader (activating at 530 nm, emission 590 nm). Unlabelled cells (cells without dye), unlabelled Cy3 (unlinked dye) (Amersham Pharmacia Biotech), and, untreated cells (unpermeabilised cells without digitonin), were used as controls. […] Cytosolic preparations were confirmed using an assay for cytoplasmic lactic dehydrogenase (LDH) in the presence of PNADH (Wroblewski & LaDue, Proc. Soc. Exp. Biol. Med. 1955, (90), 210-213.

NIH 3T3 cells [2] = assay: Flow cytometry of cells incubated with Cy3 linked to carrier peptide; assay type: cell-based, Mouse; conditions: 1 μM, 60 min
Protocol: Mouse fibroblasts (NIH 3T3 cells) were cultured in DMEM (see above) on 24-well tissue culture plates (Costar Inc.). Cells were incubated (60 min, 5% CO2, 37° C., 95% humidity) with Cy3 (1 μM) linked to carrier peptide (H2N-Ala-Pro-Thr-Arg-Val-Leu-Pro-Pro-Leu-Val-Ala-Gly-Gly-Lys-OH (SEQ ID No.6)). After incubation, the culture supernatant was decanted and the cells washed. Cells were trypsinised (0.25% w/v, 5 min) and re-suspended in PBS, before analysis by flow cytometry (see below). Untreated cells and Cy3 only (unlinked dye) (Amersham Pharmacia Biotech) were used as controls.
All samples were analyzed on a FACSCalibur Flow Cytometry System (Becton Dickinson, San Jose, Calif., USA) with CellQuest software. The instrument is equipped with a 488 nm argon-ion laser and 5 detection parameters. There are 2 scatter detectors, known as forward scatter (FSC) and side scatter (SSC) which provide information about cellular size and internal complexity, respectively. In addition, there are three relative fluorescence intensity detectors. Cy3 labelling was monitored with the second fluorescence detector (FL2) fitted with a 585/42 nm filter. […]
Histogram markers were set so that only 2-3% of the recorded events were past the FL2 channel marker 30 for the dye only control.

NIH 3T3 cells [3] = assay: Cellular uptake of Cy3 linked to carrier peptide (plate reader, fluorescence and confocal microscopy); assay type: cell-based, Mouse
Protocol: Mouse fibroblasts (NIH 3T3) or human ovary adenocarcinoma (SK-OV) cells were cultured in Dulbecco's modified Eagle's medium (DMEM) supplemented with 10% (v/v) foetal calf serum (FCS), 4 mM L-glutamine, 100 U/ml penicillin and 100 μg/ml streptomycin. NIH 3T3 cells were grown on 96-well tissue culture plates (Costar Inc.) or WillCo-dishes (glass-bottomed dishes, with 0.17 mm cover glass for inverted microscopes) (WillCo), before treatment with carrier peptide. Cells were incubated (60 min, 5% CO2, 37° C., 95% humidity) with Cy3 linked to carrier peptide (H2N-Ala-Pro-Thr-Arg-Val-Leu-Pro-Pro-Leu-Val-Ala-Gly-Gly-Lys-OH) (SEQ ID No.6)) (range 1-100 μM). After incubation, the culture supernatant was decanted and the cells were washed. Cy3 (unlinked dye) (Amersham Pharmacia Biotech) was used as a control. Cellular fluorescence was detected using a CytoFluor multi-well plate reader (Applied Biosystems, Foster City, Calif., USA), (activating at 530 nm, emission 590 nm) (FIG. 1); a Nikon-Diaphot 300 fluorescence microscope, (activating at 490 nm, emission at 520 nm); and a Zeiss Microsystems confocal laser scanning microscope (LSM4) (activating at 515 nm, emission at 565 nm) (FIGS. 2 (a) and (b)). Cells were further studied for intracellular dye localization by a twenty-step Z-position sectional scanning of the cell (0.5 μm/section) using a 40× oil immersion lens (FIG. 3). […]

NIH 3T3 cells [4] = assay: Cellular delivery of nuclear localization sequence (confocal microscopy); assay type: cell-based, Mouse; conditions: overnight incubation, FIG. 10
Protocol: NIH 3T3 cells were cultured (see above) on WillCo-dishes (glass-bottomed dishes, with 0.17 mm cover glass for inverted microscopes) (WillCo), before treatment with carrier peptide linked to the nuclear localization sequence. Confluent NIH 3T3 cells were incubated (overnight, 5% CO2, 37° C., 95% humidity) in the presence of Cy3-[…]amide, before washing (×3) with PBS, and visualization using a Zeiss Microsystems confocal laser scanning microscope (LSM4) (activating at 515 nm, emission at 565 nm). Controls included Cy3 linked to carrier peptide (Cy3-Ala-Pro-Thr-Arg-Val-Leu-Pro-Pro-Leu-Val-Ala-Gly-Gly-Lys-OH), and unlabelled Cy3 (unlinked dye) (Amersham Pharmacia Biotech).

Ac-Ala-Pro-Thr-Arg-Val-Leu-Pro-Pro-Leu-Val-Ala-Gly-Gly-Lys(Cy5Q)-amide (Ac-APTRVLPPLVAGGK(Cy5Q)-NH2) [carrier peptide linked to Cy5Q]
substrate conversion (Cy5Q fluorescence) (parental SK-OV cells): Little conversion
cellular uptake and substrate conversion (Cy5Q fluorescence) ([1]; FIG. 9): significant cellular internalization and substrate conversion
cellular uptake and substrate conversion (Cy5Q fluorescence) ([1]; FIG. 9, listed as delivery peptide linked to Cy5Q): significant cellular uptake and substrate conversion

Cy3 linked to carrier peptide (SEQ ID No.4): Cy3 dye linked through NHS ester to carrier peptide H2N-Ala-Pro-Thr-Arg-Val-Pro-Leu-Pro-Leu-Pro-Val-Gly-Gly-Lys-OH (APTRVPLPLPVGGK-OH; also: Cy3 dye linked through NHS ester, site not given here)
delivered dye in the cytosol (supernatant fraction after digitonin) (NIH 3T3): significant amount of delivered agent in the cytosol; also recorded: significant amount of delivered dye into the cytosol

Cy3 linked to carrier peptide (SEQ ID No.5): Cy3 dye linked through NHS ester to carrier peptide H2N-Ala-Pro-Thr-Arg-Ala-Val-Leu-Pro-Leu-Ala-Val-Gly-Gly-Lys-OH (APTRAVLPLAVGGK-OH; also: Cy3 dye linked through NHS ester, site not given here)
delivered dye in the cytosol (supernatant fraction after digitonin) (NIH 3T3): significant amount of delivered agent in the cytosol; also recorded: significant amount of delivered dye into the cytosol

Cy3 linked to carrier peptide (SEQ ID No.7): Cy3 dye linked through NHS ester to carrier peptide H2N-Ala-Pro-Thr-Arg-Val-Leu-Leu-Pro-Leu-Leu-Val-Gly-Gly-Lys-OH (APTRVLLPLLVGGK-OH; also: Cy3 dye linked through NHS ester, site not given here)
delivered dye in the cytosol (supernatant fraction after digitonin) (NIH 3T3): significant amount of delivered agent in the cytosol; also recorded: significant amount of delivered dye into the cytosol

Cy3-Ala-Pro-Thr-Arg-Val-Leu-Pro-Pro-Leu-Val-Ala-Gly-Gly-Lys-OH (Cy3-APTRVLPPLVAGGK-OH)
uptake of Cy3 across the cell population (dot plots) (NIH 3T3 cells [2]; FIG. 5): homogeneous uptake
increase in fluorescence geometric mean between dye control and test cells (NIH 3T3 cells [2]; FL2 histogram, FIG. 6): approximately 5 fold
delivered dye in the cytosol (supernatant fraction after digitonin) (NIH 3T3): significant amount of delivered agent in the cytosol; also recorded: significant amount of delivered dye into the cytosol
intracellular dye localization by twenty-step Z-position sectional scanning (NIH 3T3 cells [3]; confocal, 0.5 μm/section, FIG. 3): dye staining in the central portion of the cell, and little staining on the periphery or cell membrane
uptake of Cy3 into NIH 3T3 cells (cellular fluorescence) (NIH 3T3 cells [3]; range 1-100 μM, 60 min, CytoFluor plate reader, FIG. 1): dose-dependent uptake

Cy3-Ser-Ser-Asp-Asp-Glu-Ala-Thr-Ala-Ser-Asp-Gln-His-Ser-Thr-Pro-Pro-Lys-Lys-Lys-Arg-Lys-Val-Glu-Asp-Pro-Lys-Ala-Pro-Thr-Arg-Val-Leu-Pro-Pro-Leu-Val-Ala-Gly-Gly-Lys-amide
nuclear staining compared with the controls (NIH 3T3 cells [4]): more pronounced nuclear staining
